Measurements taken from ChEMBL document CHEMBL1201862, “PubChem BioAssay data set” (2004).
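Compound exposure: 48 hours, 5 concentrations, 96-well plates. At the GI50, growth is halved.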 Activity calls are given as the source filed them. No stated cut-off is given here; in the data, active = GI50 up to about 1.1 µM and inactive = higher.

Key:
Test in all cases: NCI-60 cell line screen, 48 h
HCT-116 = tested on: HCT-116
PC-3 = tested on: PC-3
RPMI-8226 = tested on: RPMI-8226
HL-60 = tested on: HL-60
K562 = tested on: K562
NCI-H460 = tested on: NCI-H460
Hs-578T = tested on: Hs-578T
SK-MEL-28 = tested on: SK-MEL-28
MDA-MB-435 = tested on: MDA-MB-435
EKVX = tested on: EKVX
NCI/ADR-RES = tested on: NCI/ADR-RES
SK-OV-3 = tested on: SK-OV-3
NCI-H522 = tested on: NCI-H522
M14 = tested on: M14
MCF7 = tested on: MCF7
HCT-15 = tested on: HCT-15
LOX IMVI = tested on: LOX IMVI
SN12C = tested on: SN12C
SW-620 = tested on: SW-620
HCC 2998 = tested on: HCC 2998

SMILES | GI50 (HCT-116) | GI50 (PC-3) | GI50 (RPMI-8226) | GI50 (HL-60) | GI50 (K562) | GI50 (NCI-H460) | GI50 (Hs-578T) | GI50 (SK-MEL-28) | GI50 (MDA-MB-435) | GI50 (EKVX) | GI50 (NCI/ADR-RES) | GI50 (SK-OV-3) | GI50 (NCI-H522) | GI50 (M14) | GI50 (MCF7) | GI50 (HCT-15) [µM] | GI50 (LOX IMVI) | GI50 (SN12C) | GI50 (SW-620) | GI50 (HCC 2998)
COC1OC2COC(=O)c3cc(O)c(O)c(O)c3-c3c(cc(O)c(O)c3O)C(=O)OC2C(O)C1O (configuration not stated) | 34.9 µM (inactive) | > 100 µM (inactive) | 55.7 µM (inactive) | > 10 µM (inactive) | 36.4 µM (inactive) | 45.3 µM (inactive) | > 100 µM (inactive) | > 100 µM (inactive) | 30.5 µM (inactive) | > 100 µM (inactive) | > 100 µM (inactive) | > 100 µM (inactive) | 94.8 µM (inactive) | 43.9 µM (inactive) | 42.6 µM (inactive) | > 100 | 23.2 µM (inactive) | 16.5 µM (inactive) | 21.7 µM (inactive) | 
c1cc2c(c(NC3=NCCO3)c1)CCC2 | > 100 µM (inactive) | 67 µM (inactive) | > 100 µM (inactive) | 60.1 µM (inactive) | > 100 µM (inactive) | > 100 µM (inactive) | 78.2 µM (inactive) | > 100 µM (inactive) | 85.7 µM (inactive) | > 100 µM (inactive) | > 100 µM (inactive) | > 100 µM (inactive) | > 100 µM (inactive) | > 100 µM (inactive) | > 100 µM (inactive) | > 100 | > 100 µM (inactive) | > 100 µM (inactive) | > 100 µM (inactive) | 
CC(=O)Nc1cc(Nc2cc(O)nc(O)n2)ccc1C | > 100 µM (inactive) | > 100 µM (inactive) | > 100 µM (inactive) | > 100 µM (inactive) | > 100 µM (inactive) | > 100 µM (inactive) | > 100 µM (inactive) | > 100 µM (inactive) | > 100 µM (inactive) | > 100 µM (inactive) | > 100 µM (inactive) |  |  | > 100 µM (inactive) | > 100 µM (inactive) | > 100 | > 100 µM (inactive) | > 100 µM (inactive) | > 100 µM (inactive) | > 100 µM (inactive)
O=C1Nc2ccc(Br)cc2/C1=N/NC(=S)Nc1ccc(F)cc1 | 3.87 µM (inactive) | 5.27 µM (inactive) |  | 1.6 µM (inactive) | 3.61 µM (inactive) | 1.59 µM (inactive) | 12 µM (inactive) | 3.94 µM (inactive) | 2.4 µM (inactive) |  | 1.48 µM (inactive) | 13.2 µM (inactive) | 10.5 µM (inactive) |  | 3.43 µM (inactive) | 1.37 | 4.7 µM (inactive) | 4.15 µM (inactive) | 4.78 µM (inactive) | 
